According to paper doi:10.1101/2021.04.08.439011v1 (biorxiv, 2021):
Like-named read-outs stand apart in the source and are kept apart here.

Experiments:
ABL1(Q252H) = ABL1(Q252H) (Homo sapiens, UniProt P00519, Q252H); conditions: 0.1 µM, binder
ACVR1B = ACVR1B (Homo sapiens, UniProt P36896); conditions: 0.1 µM; binder
ADCK3 = ADCK3 (Homo sapiens, UniProt Q8NI60); conditions: 0.1 µM; binder
BMPR1B = BMPR1B (Homo sapiens, UniProt O00238); conditions: 0.1 µM; binder
CDK5 = CDK5 (Homo sapiens, UniProt Q00535); conditions: 0.1 µM; binder
DCAMKL2 = DCAMKL2 (Homo sapiens, UniProt Q8N568); conditions: 0.1 µM; binder
EPHA4 = EPHA4 (Homo sapiens, UniProt P54764); conditions: 0.1 µM; binder
EPHA8 = EPHA8 (Homo sapiens, UniProt P29322); conditions: 0.1 µM; binder
FAK = FAK (Homo sapiens, UniProt Q05397); conditions: 0.1 µM; binder
FER = FER (Homo sapiens, UniProt P16591); conditions: 0.1 µM; binder
FGFR2 = FGFR2 (Homo sapiens, UniProt P21802); conditions: 0.1 µM; binder
FLT3(K663Q) = FLT3(K663Q) (Homo sapiens, UniProt P36888, K663Q); conditions: 0.1 µM; binder
LZK = LZK (Homo sapiens, UniProt O43283); conditions: 0.1 µM; binder
MAP3K4 = MAP3K4 (Homo sapiens, UniProt Q9Y6R4); conditions: 0.1 µM; binder
MAP4K5 = MAP4K5 (Homo sapiens, UniProt Q9Y4K4); conditions: 0.1 µM; binder
MAPKAPK5 = MAPKAPK5 (Homo sapiens, UniProt Q8IW41); conditions: 0.1 µM; binder
MELK = MELK (Homo sapiens, UniProt Q14680); conditions: 0.1 µM; binder
MLK2 = MLK2 (Homo sapiens, UniProt Q02779); conditions: 0.1 µM; binder
MYO3A = MYO3A (Homo sapiens, UniProt Q8NEV4); conditions: 0.1 µM; binder
PAK2 = PAK2 (Homo sapiens, UniProt Q13177); conditions: 0.1 µM; binder
PIK3C2B = PIK3C2B (Homo sapiens, UniProt O00750); conditions: 0.1 µM; binder
PRKD3 = PRKD3 (Homo sapiens, UniProt O94806); conditions: 0.1 µM; binder
PRKX = PRKX (Homo sapiens, UniProt P51817); conditions: 0.1 µM; binder
RIOK1 = RIOK1 (Homo sapiens, UniProt Q9BRS2); conditions: 0.1 µM; binder
SIK1 = SIK1 (Homo sapiens, UniProt P57059); conditions: 0.1 µM; binder
SNARK = SNARK (Homo sapiens, UniProt Q9H093); conditions: 0.1 µM; binder
SNRK = SNRK (Homo sapiens, UniProt Q9NRH2); conditions: 0.1 µM; binder
SRPK2 = SRPK2 (Homo sapiens, UniProt P78362); conditions: 0.1 µM; binder
TAOK2 = TAOK2 (Homo sapiens, UniProt Q9UL54); conditions: 0.1 µM; binder
TSSK3 = TSSK3 (Homo sapiens, UniProt Q96PN8); conditions: 0.1 µM; binder
TTK = TTK (Homo sapiens, UniProt P33981); conditions: 0.1 µM; binder

Sequence of PIK3C2B (O00750 whole entry): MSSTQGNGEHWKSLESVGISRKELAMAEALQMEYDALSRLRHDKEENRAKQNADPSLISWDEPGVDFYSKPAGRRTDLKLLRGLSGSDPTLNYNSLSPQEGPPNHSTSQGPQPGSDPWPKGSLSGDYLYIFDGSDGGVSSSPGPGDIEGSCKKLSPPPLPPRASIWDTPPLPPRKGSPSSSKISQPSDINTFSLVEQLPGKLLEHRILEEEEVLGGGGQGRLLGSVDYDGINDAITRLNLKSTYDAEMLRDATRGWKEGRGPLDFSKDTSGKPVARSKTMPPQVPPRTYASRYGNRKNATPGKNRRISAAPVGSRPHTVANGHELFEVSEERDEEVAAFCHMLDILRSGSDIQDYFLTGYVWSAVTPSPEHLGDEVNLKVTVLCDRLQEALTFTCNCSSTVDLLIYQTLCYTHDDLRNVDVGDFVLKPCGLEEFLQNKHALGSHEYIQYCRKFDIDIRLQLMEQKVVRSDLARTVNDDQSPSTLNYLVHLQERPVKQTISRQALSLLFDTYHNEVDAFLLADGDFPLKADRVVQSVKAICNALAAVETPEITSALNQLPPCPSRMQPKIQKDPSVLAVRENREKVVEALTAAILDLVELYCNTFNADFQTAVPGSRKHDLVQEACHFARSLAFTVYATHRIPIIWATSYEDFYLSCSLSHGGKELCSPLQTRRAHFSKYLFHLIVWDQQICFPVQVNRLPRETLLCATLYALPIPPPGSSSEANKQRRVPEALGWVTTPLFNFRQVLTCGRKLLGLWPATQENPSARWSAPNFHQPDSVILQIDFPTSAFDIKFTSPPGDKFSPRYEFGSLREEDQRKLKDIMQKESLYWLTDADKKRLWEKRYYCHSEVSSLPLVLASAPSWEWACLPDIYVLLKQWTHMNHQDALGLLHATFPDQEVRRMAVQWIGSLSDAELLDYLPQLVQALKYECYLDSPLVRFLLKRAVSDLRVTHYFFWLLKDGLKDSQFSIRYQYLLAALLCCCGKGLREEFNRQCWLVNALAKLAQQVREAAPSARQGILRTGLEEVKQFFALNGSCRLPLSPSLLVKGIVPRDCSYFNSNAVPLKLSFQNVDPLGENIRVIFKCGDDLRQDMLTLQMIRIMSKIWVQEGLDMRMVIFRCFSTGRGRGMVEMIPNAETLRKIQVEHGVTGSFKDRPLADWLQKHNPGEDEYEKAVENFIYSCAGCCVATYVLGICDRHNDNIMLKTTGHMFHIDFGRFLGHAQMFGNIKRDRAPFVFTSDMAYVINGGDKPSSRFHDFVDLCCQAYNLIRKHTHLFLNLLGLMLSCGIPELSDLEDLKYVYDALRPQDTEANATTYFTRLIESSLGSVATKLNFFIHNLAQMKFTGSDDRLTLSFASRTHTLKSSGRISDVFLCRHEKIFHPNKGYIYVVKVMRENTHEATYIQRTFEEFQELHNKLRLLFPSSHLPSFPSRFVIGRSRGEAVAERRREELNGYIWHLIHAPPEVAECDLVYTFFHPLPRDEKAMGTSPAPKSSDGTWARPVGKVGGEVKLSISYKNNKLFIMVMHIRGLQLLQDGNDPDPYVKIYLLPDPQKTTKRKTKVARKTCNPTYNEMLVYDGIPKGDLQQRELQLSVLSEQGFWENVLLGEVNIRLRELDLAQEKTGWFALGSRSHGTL
Sequence of SIK1 (P57059 whole entry): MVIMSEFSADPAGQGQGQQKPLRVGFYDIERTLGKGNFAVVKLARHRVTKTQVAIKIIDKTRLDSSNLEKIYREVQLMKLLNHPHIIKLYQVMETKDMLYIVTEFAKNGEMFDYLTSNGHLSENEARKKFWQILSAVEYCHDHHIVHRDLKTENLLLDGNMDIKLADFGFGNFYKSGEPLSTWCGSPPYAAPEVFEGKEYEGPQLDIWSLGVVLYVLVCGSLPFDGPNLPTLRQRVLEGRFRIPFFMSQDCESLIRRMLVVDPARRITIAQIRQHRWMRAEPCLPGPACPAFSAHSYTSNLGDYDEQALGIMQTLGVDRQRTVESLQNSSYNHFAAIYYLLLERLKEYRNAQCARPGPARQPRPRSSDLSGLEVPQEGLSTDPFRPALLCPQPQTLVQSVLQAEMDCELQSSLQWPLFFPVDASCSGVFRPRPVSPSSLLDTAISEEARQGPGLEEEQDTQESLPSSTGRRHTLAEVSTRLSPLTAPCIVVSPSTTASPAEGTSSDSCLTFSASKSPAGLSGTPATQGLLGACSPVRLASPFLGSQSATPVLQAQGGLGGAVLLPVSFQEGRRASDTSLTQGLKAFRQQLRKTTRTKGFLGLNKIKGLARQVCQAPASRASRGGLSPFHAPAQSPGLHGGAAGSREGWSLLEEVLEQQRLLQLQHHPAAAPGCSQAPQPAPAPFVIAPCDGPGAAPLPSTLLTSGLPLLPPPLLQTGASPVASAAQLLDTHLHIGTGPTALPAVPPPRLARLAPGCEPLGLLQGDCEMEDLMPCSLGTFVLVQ
Sequence of SNRK (Q9NRH2 whole entry): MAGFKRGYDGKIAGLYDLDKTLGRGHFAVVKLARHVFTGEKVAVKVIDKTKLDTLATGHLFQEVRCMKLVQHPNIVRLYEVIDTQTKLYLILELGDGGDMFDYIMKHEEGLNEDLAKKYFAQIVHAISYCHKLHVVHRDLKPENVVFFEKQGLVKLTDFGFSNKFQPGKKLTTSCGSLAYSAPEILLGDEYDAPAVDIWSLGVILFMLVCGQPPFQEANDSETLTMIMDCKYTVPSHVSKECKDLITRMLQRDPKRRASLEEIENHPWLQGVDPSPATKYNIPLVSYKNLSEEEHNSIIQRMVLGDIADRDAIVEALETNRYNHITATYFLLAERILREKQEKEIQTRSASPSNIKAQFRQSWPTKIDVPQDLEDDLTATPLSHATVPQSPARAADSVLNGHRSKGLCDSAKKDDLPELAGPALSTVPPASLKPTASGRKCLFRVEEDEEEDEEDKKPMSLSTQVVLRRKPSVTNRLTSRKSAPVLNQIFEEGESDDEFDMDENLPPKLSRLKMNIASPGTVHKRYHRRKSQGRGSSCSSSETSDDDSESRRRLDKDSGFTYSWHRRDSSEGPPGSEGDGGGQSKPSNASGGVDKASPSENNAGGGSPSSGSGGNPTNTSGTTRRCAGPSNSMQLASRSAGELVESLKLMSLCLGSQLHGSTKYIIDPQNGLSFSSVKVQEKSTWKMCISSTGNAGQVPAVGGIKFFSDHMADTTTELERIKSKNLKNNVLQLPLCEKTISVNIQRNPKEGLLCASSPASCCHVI
Sequence of DCAMKL2 (Q8N568 whole entry): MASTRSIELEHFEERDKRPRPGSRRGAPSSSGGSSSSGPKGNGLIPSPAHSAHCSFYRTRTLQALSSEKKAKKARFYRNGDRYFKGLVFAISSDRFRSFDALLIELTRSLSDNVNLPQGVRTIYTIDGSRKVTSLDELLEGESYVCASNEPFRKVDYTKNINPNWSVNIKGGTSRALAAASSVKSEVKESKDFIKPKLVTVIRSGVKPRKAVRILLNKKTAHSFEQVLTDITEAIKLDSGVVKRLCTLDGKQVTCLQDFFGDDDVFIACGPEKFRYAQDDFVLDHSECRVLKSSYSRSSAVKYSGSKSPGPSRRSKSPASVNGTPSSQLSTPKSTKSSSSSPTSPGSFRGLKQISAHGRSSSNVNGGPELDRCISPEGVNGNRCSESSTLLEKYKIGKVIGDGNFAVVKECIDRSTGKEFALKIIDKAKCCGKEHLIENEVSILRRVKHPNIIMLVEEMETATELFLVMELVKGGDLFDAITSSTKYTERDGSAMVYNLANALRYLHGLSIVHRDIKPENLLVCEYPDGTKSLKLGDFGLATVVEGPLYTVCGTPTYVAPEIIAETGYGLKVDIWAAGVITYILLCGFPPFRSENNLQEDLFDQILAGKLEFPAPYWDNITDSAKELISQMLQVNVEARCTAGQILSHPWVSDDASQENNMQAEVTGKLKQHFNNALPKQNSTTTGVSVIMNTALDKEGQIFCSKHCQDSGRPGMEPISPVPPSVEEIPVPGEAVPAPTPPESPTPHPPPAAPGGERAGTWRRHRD
Sequence of LZK (O43283 whole entry): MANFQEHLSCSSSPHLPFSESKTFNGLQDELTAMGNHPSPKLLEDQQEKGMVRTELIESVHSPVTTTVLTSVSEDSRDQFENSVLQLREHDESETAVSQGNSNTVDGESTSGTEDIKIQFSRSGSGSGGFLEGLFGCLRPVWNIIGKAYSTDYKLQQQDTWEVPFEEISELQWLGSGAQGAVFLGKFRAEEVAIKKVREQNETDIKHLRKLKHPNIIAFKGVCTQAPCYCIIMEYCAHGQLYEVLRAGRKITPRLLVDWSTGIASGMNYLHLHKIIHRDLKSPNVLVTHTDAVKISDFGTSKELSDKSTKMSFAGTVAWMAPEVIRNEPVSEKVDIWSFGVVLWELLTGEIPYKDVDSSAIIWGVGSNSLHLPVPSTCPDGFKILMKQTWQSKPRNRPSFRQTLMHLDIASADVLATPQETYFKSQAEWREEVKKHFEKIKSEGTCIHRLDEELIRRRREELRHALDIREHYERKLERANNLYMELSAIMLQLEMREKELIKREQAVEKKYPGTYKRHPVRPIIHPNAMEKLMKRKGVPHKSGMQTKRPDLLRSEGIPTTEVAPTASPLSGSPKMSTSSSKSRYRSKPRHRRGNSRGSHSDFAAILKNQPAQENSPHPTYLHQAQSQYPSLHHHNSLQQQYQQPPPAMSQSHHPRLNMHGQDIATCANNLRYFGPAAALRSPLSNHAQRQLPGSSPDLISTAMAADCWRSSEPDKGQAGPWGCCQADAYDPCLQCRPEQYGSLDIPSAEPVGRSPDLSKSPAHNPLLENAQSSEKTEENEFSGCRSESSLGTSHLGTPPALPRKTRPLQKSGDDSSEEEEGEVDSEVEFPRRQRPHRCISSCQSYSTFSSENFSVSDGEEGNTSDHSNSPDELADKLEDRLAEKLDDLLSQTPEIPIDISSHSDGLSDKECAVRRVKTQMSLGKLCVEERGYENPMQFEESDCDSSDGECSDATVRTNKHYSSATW

## CNc1ncc2cc(-c3ccc(-c4cccc(C)n4)cc3Cl)c(=O)n(C[C@H]3OC[C@H](N)CO3)c2n1 [compound 6, G-5555]
ABL1(Q252H); nonphosphorylated
  Percent Control: 86%
ABL1(Q252H); phosphorylated
  Percent Control: 97%
ACVR1B
  Percent Control: 100%
ADCK3
  Percent Control: 100%
BMPR1B
  Percent Control: 95%
CDK5
  Percent Control: 100%
DCAMKL2
  Percent Control: 100%
EPHA4
  Percent Control: 100%
EPHA8
  Percent Control: 100%
FAK
  Percent Control: 98%
FER
  Percent Control: 100%
FGFR2
  Percent Control: 100%
FLT3(K663Q)
  Percent Control: 100%
LZK
  Percent Control: 100%
MAP3K4
  Percent Control: 84%
MAP4K5
  Percent Control: 18%
MAPKAPK5
  Percent Control: 100%
MELK
  Percent Control: 51%
MLK2
  Percent Control: 100%
MYO3A
  Percent Control: 100%
PAK2
  Percent Control: 13%
PIK3C2B
  Percent Control: 88%
PRKD3
  Percent Control: 95%
PRKX
  Percent Control: 100%
RIOK1
  Percent Control: 100%
SIK1
  Percent Control: 1.4%
SNARK
  Percent Control: 19%
SNRK
  Percent Control: 84%
SRPK2
  Percent Control: 98%
TAOK2
  Percent Control: 99%
TSSK3
  Percent Control: 100%
TTK
  Percent Control: 100%
